Here are results for 13 molecules from publication PMC9693455, “Synthesis of Tetrasubstituted Phosphorus Analogs of Aspartic Acid as Antiproliferative Agents” (Molecules, 2022).

For data set [1], the system named is MRC5 lung fibroblast cells. In words: Selective toxicity, CCK-8 assay, non-malignant MRC5 lung fibroblasts. The settings on record: Homo sapiens; non-malignant MRC5 lung fibroblasts, 48 h exposure, CCK-8. It is filed as cell-based. Here is the method:
(§1) In vitro cytotoxicity of the phosphorated aspartic acid derivatives was evaluated by testing their antiproliferative activities against several human cancer cell lines. Cell counting kit (CCK-8) assay was used for the evaluation of growth inhibition. […] In addition, trisubstituted aminophosphonate 9a (Imine precursor, R^1 = H, R^2 = P(O)(OMe)2) and tetrasubstituted aminophosphonate 18 (R^1 = Me, R^2 = P(O)(OMe)2) are used as templates in order to evaluate the effect of the substituents (Table 1).
(§2) Human epithelial lung carcinoma cells (A549) (ATCC® CCL-185™, ATCC, Manassas, VA, USA) were grown in Kaighn’s Modification of Ham’s F-12 Medium (ATCC® 30-2004™, ATCC, Manassas, VA, USA) and lung fibroblast cells (MRC5) (ATCC® CCL-171™, ATCC, Manassas, VA, USA) were grown in Eagle’s Minimum Essential Medium (EMEM, ATCC® 30-2003™, ATCC, Manassas, VA, USA). Epithelial ovary adenocarcinoma cells (SKOV3) (ATCC® HTB-77™, ATCC, Manassas, VA, USA) were grown in McCoy’s 5A medium (ATCC® 30-2007™, ATCC, Manassas, VA, USA). All of them were supplemented with 10% of fetal bovine serum (FBS) (Sigma-Aldrich, Madrid, Spain) and with 1% of NORMOCIN solution (Thermo Fisher, Waltham, MA, USA). Cells were incubated at 37 °C and 5% CO2 atmosphere, and were split every 3–4 days to maintain monolayer coverage. For the cytotoxicity experiments, the A549 and SKOV3 cells were seeded in 96-well plates at a density of 2.5–3 × 10^3 cells per well and incubated overnight to achieve 70% of confluence at the time of exposition to the cytotoxic compound.
(§3) Cells were exposed to different concentrations of the cytotoxic compounds and were incubated for 48 h. Then, 10 µL of cell counting kit-8 was added into each well for an additional two hours’ incubation at 37 °C. The absorbance of each well was determined by an Automatic Elisa Reader System (Thermo Scientific Multiskan FC Automatic Elisa Reader System, Thermo Scientific, Shanghai, China) at 450 nm wavelength.
In general terms: Tetrazolium assays rely on reduction of a dye to a coloured formazan, in cell work by metabolically active cells.

Data set [2] has as its system SKOV3 (human ovarian carcinoma) cells. In words: In vitro cytotoxicity (antiproliferative activity), CCK-8 assay, SKOV3. It is filed as cell-based. The settings on record: for IC50: Homo sapiens, SK-OV-3, 48 h exposure, CCK-8. Here is the method:
as §1, §2, §3

The test system of data set [3] is A549 (carcinomic human alveolar basal epithelial) cells. As to the kind of experiment: In vitro cytotoxicity (antiproliferative activity), CCK-8 assay, A549. Type of data set: cell-based. The settings on record: for IC50: Homo sapiens, 48 h exposure, CCK-8. Here is the method:
as §1, §2, §3

As for `CCOC(=O)CC(NS(=O)(=O)c1ccc(C)cc1)(c1ccc(-c2ccccc2)cc1)P(=O)(OC)OC` (stereo not shown) [7s, Ethyl 3-([1,1’-biphenyl]-4-yl)-3-(dimethoxyphosphoryl)-3-((4-methylphenyl)sulfonamido)propanoate], the melting point (as a rule, the temperature, or range, at which the solid turns liquid) is 112 to 113 °C. The IC50 (usually the concentration needed to halve the response being measured) in data set [1] is above 50 µM. This molecule returned an IC50 in data set [2] of 17 ± 1.22 µM. The same molecule registered an IC50 in data set [3] (A549, 48 h) of 1.48 ± 0.4 µM.
`COP(=O)(OC)C(CC(=O)OCc1ccccc1)(NS(=O)(=O)c1ccc(C)cc1)c1cccc(F)c1` (stereo not shown) [13a, Benzyl 3-(dimethoxyphosphoryl)-3-(3-fluorophenyl)-3-((4-methylphenyl)sulfonamido)propanoate] showed a melting point of 78 to 79 °C. For the same molecule, in data set [2], the “cytotoxicity against SKOV3 cell line (in words)” value is “no toxicity” and the IC50 was above 50 µM. The molecule also had an IC50 in data set [3] (A549, 48 h) of 12.8 ± 2.38 µM.
As for `CCOC(=O)CC(NS(=O)(=O)c1ccc(C)cc1)(c1ccc(F)cc1)P(=O)(OC)OC` (stereo not shown) [7j, Ethyl 3-(dimethoxyphosphoryl)-3-(4-fluorophenyl)-3-((4-methylphenyl)sulfonamido)propanoate], the melting point was in the range of 111 to 112 °C. This molecule also showed an IC50 in data set [1] above 50 µM. Moreover, the IC50 in data set [2] was above 50 µM. Moreover, the IC50 in data set [3] (A549, 48 h) was found to be 7.15 ± 0.24 µM.
In turn, `CCOC(=O)C[C@](NS(=O)(=O)c1ccc(C)cc1)(c1cccc(F)c1)P(=O)(OC)OC` [(R)-7k] returned an IC50 in data set [3] (A549, 48 h) of 1.61 ± 0.2 µM.
As for `COP(=O)(OC)C(C)(NS(=O)(=O)c1ccc(C)cc1)c1ccccc1` (stereo not shown) [compound 18, Dimethyl (1-((4-methylphenyl)sulfonamido)-1-phenylethyl)phosphonate], the IC50 in data set [2] was above 50 µM; in data set [3] (A549, 48 h), above 50 µM. Also, the “cytotoxicity against A549 cell line (in words)” value in data set [3] is “no cytotoxicity”.
As to `COP(=O)(OC)C(CC(=O)O)(NS(=O)(=O)c1ccc(C)cc1)c1ccccc1` (stereo not shown) [compound 14, 3-(Dimethoxyphosphoryl)-3-((4-methylphenyl)sulfonamido)-3-phenylpropanoic acid], the IC50 in data set [1] was above 50 µM; in data set [2], above 50 µM; in data set [3] (A549, 48 h), 20.6 ± 1.05 µM.
Molecule `CCOC(=O)C[C@@](NS(=O)(=O)c1ccc(C)cc1)(c1cccc(F)c1)P(=O)(OC)OC` [(S)-7k] yielded an IC50 in data set [3] (A549, 48 h) of 1.56 ± 0.39 µM.
With `COP(=O)(OC)C(NS(=O)(=O)c1ccc(C)cc1)c1ccccc1` (stereo not shown) [9a], the half-maximal inhibitory concentration (IC50) in data set [1] is above 50 µM; in data set [2], above 50 µM; in data set [3] (A549, 48 h) it was 17.6 ± 1.3 µM.
Regarding `CCOC(=O)CC(NS(=O)(=O)c1ccc(C)cc1)c1ccccc1` (stereo not shown) [compound 5, Ethyl 3-((4-methylphenyl)sulfonamido)-3-phenylpropanoate], the results for the IC50 in data set [1], in data set [2] and in data set [3] were above 50 µM, above 50 µM and 18.7 ± 2.16 µM, respectively.
`COc1cccc2c1C(=O)c1c(O)c3c(c(O)c1C2=O)C[C@@](O)(C(=O)CO)C[C@@H]3O[C@H]1C[C@H](N)[C@H](O)[C@H](C)O1` [Doxorubicin, reference compound] had an IC50 in data set [3] below 0.1 µM.
As to `CCOC(=O)CC(NS(=O)(=O)c1ccc(C)cc1)(C(=O)OCC)c1ccccc1` (stereo not shown) [compound 6, Diethyl 2-((4-methylphenyl)sulfonamido)-2-phenylsuccinate], the IC50 in data set [1] is above 50 µM; in data set [2], above 50 µM; in data set [3], 14.2 ± 0.41 µM.
Regarding `CCOC(=O)CC(NS(=O)(=O)c1ccc(C)cc1)(c1c(F)c(F)c(F)c(F)c1F)P(=O)(OC)OC` (stereo not shown) [7o, Ethyl 3-(dimethoxyphosphoryl)-3-((4-methylphenyl)sulfonamido)-3-(perfluorophenyl)propanoate], the IC50 was above 50 µM in data set [1]; 20.5 ± 2.75 µM in data set [2]; 3.65 ± 0.21 µM in data set [3] (A549, 48 h).
On to `COC(=O)CC(NS(=O)(=O)c1ccc(C)cc1)(c1cccc(F)c1)P(=O)(OC)OC` (stereo not shown) [compound 12, Methyl 3-(dimethoxyphosphoryl)-3-(3-fluorophenyl)-3-((4-methylphenyl)sulfonamido)propanoate], for which the melting point fell in the range of 115 to 116 °C. In addition, in data set [2], the “cytotoxicity against SKOV3 cell line (in words)” value is “no toxicity” and the half-inhibitory concentration (IC50) is above 50 µM. The IC50 in data set [3] (A549, 48 h) came out at 24.1 ± 4.01 µM.
